Laboratory results as given in PubChem BioAssay AID2060490 (Molecular Pharmacology Branch, DTP, NCI, 2025).
Where “and” joins values, the source holds several entries; their conditions need not be identical. Identical values can stand only once.

System: 885512-296-R-J2-PDC complex spheroid viability
Test: Anticancer human tumor 885512-296-R-J2-PDC patient-derived breast carcinoma cell line growth inhibition [GQUAD]
Conditions: for viability, T/C: stronger effect = lower value; for IC50: curve of compound
From the text: DNA G-quadruplex Stabilizer Agents in Combinations in Complex Spheroids
A high-throughput screen of multi-cell type tumor spheroids was designed to identify active combinations of DNA G-quadruplex stabilizer agents and targeted small molecules. Complex spheroids include a stromal component modeled by human endothelial cells (HUVEC) and fibroblasts modeled by human mesenchymal stem cells (MSCs). The concentration ranges selected for each drug and investigational agent were based upon clinically achievable concentrations if the clinical Cmax of the agent was known.
Compounds. The drugs and investigational agents: pidnarulex (CX-5461; NSC782164), APTO-253 (NSC789042), BRACO-19 (NSC847499), peposertib (NSC802822), ceralasertib (NSC780249), elimusertib (NSC800525), camonsertib (NSC841442), AZD-1390 (NSC803789), olaparib (NSC753686), talazoparib (NSC767125), ART-558 (NSC835418), sotorasib (NSC818433), MRTX-1133 (NSC836407), SN-38 (NSC673596), topotecan (NSC609699), etoposide (NSC141540), doxorubicin (NSC123127), gemcitabine (NSC613327), 5-fluorouracil (NSC19893), paclitaxel (NSC125973), vemurafenib (NSC761431), panobinostat (NSC761190), R-306465 (JNJ-16241199; NSC773264), adavosertib (NSC754352), TP-3654 (NSC805149), carboplatin (NSC241240), KSQ-4279 (NSC840948), and staurosporine (NSC755774) were obtained from the National Cancer Institute (NCI) Developmental Therapeutics Program Chemical Repository (34). The FDA-approved anticancer drug set is available from the NCI Developmental Therapeutics Program. […] The stock solutions were prepared in dimethyl sulfoxide (DMSO, Sigma-Aldrich, St. Louis, MO, cat. D2650) at 800-fold the tested concentration and stored at -70 degrees C prior to their use. All drugs and investigational agents were tested over a range starting from a high concentration at or near the clinical Cmax and decreasing in half-log increments. If the clinical Cmax for an agent had not been determined, the highest concentration tested was 10 microM.
2.3 Cell Culture. All cells were maintained in an incubator at 37 degrees C and 5% CO2 with 95% humidity. The PDC lines were cultured according to standard operating procedures established by the NCI PDMR. All PDCs were thawed and cultured in Matrigel-coated flasks prepared with a working solution of 1X Ham's F-12 nutrient mix, without supplementation (Invitrogen, cat. 11765054), 100 U/mL penicillin-streptomycin (Invitrogen, cat. 15140122), and 2.5% Matrigel (Corning Inc., cat. 354248) for the first three passages. The 857933-349-R-J2-PDC line was cultured in 6C/Colon 1B media, which includes advanced DMEM/F-12 (Thermo Fisher Scientific, cat. 12634028), 10 mM HEPES (Thermo Fisher Scientific, cat. 15630080), 1X GlutaMAX supplement (Thermo Fisher Scientific, cat. 35050061), 0.1 mg/mL primocin (InvivoGen, cat. ant-pm-2), 10% defined fetal bovine serum, heat inactivated (HyClone Laboratories Inc., cat. SH30070.03HI), 50% L-WRN conditioned media (ATCC, cat. CRL-3276), 1.25 mM N-Acetyl-L-cysteine (Sigma-Aldrich, cat. A9165), 10 mM nicotinamide (Sigma-Aldrich, cat. N0636), 1X B-27 supplement (Thermo Fisher Scientific, cat. 17504044), 1X N-2 supplement (Thermo Fisher Scientific, cat. 17502048), 10 microM Y-27632 dihydrochloride (Tocris Bioscience, cat. 1254), and 50 ng/mL human EGF recombinant protein (Thermo Fisher Scientific, cat. PHG0311). The 485176-168-R4-J1-PDC line was cultured in Panc media, which includes all 6C/Colon 1B media components plus 100 ng/mL human FGF-10 (Thermo Fisher Scientific, cat. 100-26), 500 nM SB-431542 (Selleckchem, cat. S1067), and gastrin (Tocris, cat. 3006).
[…]
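Also: spheroids exposed to the compounds for one week.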
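For viability, T/C in this document: percent of tumor spheroid viability relative to DMSO vehicle control wells.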

| IC50 | Structure (SMILES) | viability, T/C (compound 0.000999 µM) | viability, T/C (compound 0.00316 µM) | viability, T/C (compound 0.00999 µM) | viability, T/C (compound 0.0316 µM) | viability, T/C (compound 0.0999 µM) | viability, T/C (compound 0.316 µM) | viability, T/C (compound 0.1 µM) | viability, T/C (compound 1 µM) | viability, T/C (compound 3.16 µM) | viability, T/C (compound 10 µM) |
| --- | --- | --- | --- | --- | --- | --- | --- | --- | --- | --- | --- |
| < 0.000999 µM | CCc1c2c(nc3ccc(O)cc13)-c1cc3c(c(=O)n1C2)COC(=O)[C@]3(O)CC | 25.5% and 14.5% and 17.8% | 8.48% and 8.19% and 8.06% | 5.42% and 2.67% and 4.25% | 3.41% and 2.61% and 2.84% | 2% and 2.11% and 1.97% | 1.84% and 1.42% and 1.47% | – | – | – | – |
| 0.0274 µM and 0.0212 µM and 0.0239 µM | CC[C@@]1(O)C(=O)OCc2c1cc1n(c2=O)Cc2cc3c(CN(C)C)c(O)ccc3nc2-1 | 116% and 100% and 107% | 93.6% and 104% and 96.9% | 84% and 86.7% and 91.6% | 47.7% and 30.2% and 36.7% | 11.4% and 8.49% and 7.63% | 4.95% and 2.59% and 5.86% | – | – | – | – |
| > 10 µM | Cc1cccc(N(C)C(=O)C2C(O)CCN2c2nc(C)cc(C(F)(F)F)c2C#N)c1 (stereo unspecified) | – | – | – | 104% and 98.3% and 102% | – | 91.8% and 93.8% and 104% | 100% and 104% (2×) | 97.2% and 103% and 105% | 97.8% and 113% and 97.5% | 85% and 79.4% and 86.6% |
